Assay results published in patent publication US11596611B2, “Hepatitis B antiviral agents” (ENANTA PHARMACEUTICALS, INC., priority 2017, dated 2023).
pEC50: −log10 of the molar value. Like-named read-outs stand apart in the source and are kept apart here.

System: HBV
Assay: HepAD38 antiviral assay: reduction of viral product accumulation (virion DNA by qPCR, HBsAg or HBeAg by ELISA)
Format: cell-based, hepatitis B virus
Conditions: Hepatitis B virus; for pEC50: 120 h, HepAD38 cells, five days after compound addition, 50% reduction of viral product vs no drug controls, read-out: HepAD38 EC50
Procedure: Methods: HepAD38 cells are maintained as previously reported (Ladner et al, Antimicrob. Agents Chemother. 1997, […], 1715). Briefly, cells are passaged upon attaining confluency in DMEM/F12 media in the presence of 10% FBS, Penn/Strep, 250 μg/mL G418, and 1 ug/ml tetracycline. Novel compounds are screened by first washing cells three times with PBS to remove tetracycline, and plating in 96 well plates at 35,000 cells/well. Compounds dissolved in DMSO are then diluted 1:200 into wells containing cells. Five days after compound addition, material is harvested for analysis. For an extended 8 days analysis, cells are plated and treated as described above, but media and compound are refreshed on d2 and d5 post initial treatment.
On harvest day, virion DNA is obtained by lysing with Sidestep Lysis and Stabilization Buffer and then quantified via quantitative real time PCR. Commercially available ELISA kits are used to quantitate the viral proteins HBsAg (Alpco) or HbeAg (US Biological) by following the manufacturer's recommended protocol after diluting samples to match the linear range of their respective assays.

Structure (SMILES)	pEC50	EC50 (HePAD38, 120 h, read-out: HepAD38 EC50 (μM))
C[C@]1(O)C2CCC1C[C@@H](S(=O)(=O)c1cc(C(=O)Nc3ccc(C#N)c(F)c3)ccc1Cl)C2 [Example 45]	< 6.70	–
CC(C)(C1CCC(F)(F)CC1)S(=O)(=O)c1cc(C(=O)Nc2ccc(F)c(F)c2)ccc1Cl [Example 232]	< 6.70	–
O=C(Nc1ccc(F)c(F)c1)c1ccc(Cl)c(S(=O)(=O)[C@H]2CC3CCC(C2)[C@]3(O)C(O)CN2CCOC2=O)c1 (some centres unmarked) [Example 315]	< 6.70	–
COC(=O)CNC(=O)CC1(O)CC(S(=O)(=O)c2cc(C(=O)Nc3ccc(F)c(F)c3)ccc2Cl)C1 (centres unmarked) [Example 244]	< 6.70	–
C=CC1(O)CC(S(=O)(=O)c2cc(C(=O)Nc3ccc(F)c(F)c3)ccc2Cl)C1 (centres unmarked) [Example 260]	< 6.70	–
C=CCC1(O)CC(S(=O)(=O)c2cc(C(=O)Nc3ccc(F)c(F)c3)ccc2Cl)C1 (centres unmarked) [Example 239]	< 6.70	–
O=C(Nc1ccc(F)c(F)c1)c1ccc(Cl)c(S(=O)(=O)[C@H]2CC3CCC(C2)[C@]3(O)CNC(=O)C2CC2)c1 [Example 158]	> 6.98	–
CN1C2CCC1CC(S(=O)(=O)c1cc(C(=O)Nc3cc(F)c(F)c(F)c3)ccc1Cl)C2 (centres unmarked) [Example 145]	< 6.70	–
COCC(COC)OC[C@]1(O)C2CCC1C[C@@H](S(=O)(=O)c1cc(C(=O)Nc3cc(F)c(F)c(F)c3)ccc1Cl)C2 [Example 121]	> 6.98	–
COC(=O)N[C@@H](C)C(=O)N1C2CCC1CC(S(=O)(=O)c1cc(C(=O)Nc3cc(F)c(F)c(F)c3)ccc1Cl)C2 (single isomer, unassigned) [Example 141]	–	0.1 to 0.2 µM
CC(C)(O)/C=C\[C@]1(O)C2CCC1C[C@@H](S(=O)(=O)c1cc(C(=O)Nc3cc(F)c(F)c(F)c3)ccc1Cl)C2 [Example 21]	> 6.98	–
CC(C)(O)CC(=O)NC[C@]1(O)C2CCC1C[C@@H](S(=O)(=O)c1cc(C(=O)Nc3ccc(F)c(F)c3)ccc1Cl)C2 [Example 170]	> 6.98	–
CC[C@@H](O)[C@H](O)[C@]1(O)C2CCC1C[C@@H](S(=O)(=O)c1cc(C(=O)Nc3ccc(F)c(F)c3)ccc1Cl)C2 (racemic) [Example 333]	> 6.98	–
CC(C)(O)C[C@]1(O)CC[C@@H](CS(=O)(=O)c2cc(C(=O)Nc3ccc(F)c(F)c3)ccc2Cl)CC1 [Example 228]	< 6.70	–
O=C(Nc1ccc(F)c(F)c1)c1ccc(Cl)c(S(=O)(=O)[C@H]2CC3CCC(C2)[C@]3(O)C(O)C(O)CN2CCOC2=O)c1 (some centres unmarked) [Example 313]	> 6.98	–
COc1cc(NC(=O)c2ccc(Cl)c(S(=O)(=O)[C@H]3CC4CCC(C3)[C@@]4(C)O)c2)ccc1F [Example 104]	< 6.70	–
O=C(Nc1ccc(F)c(F)c1)c1ccc(Cl)c(S(=O)(=O)C2CC(C(=O)NCCCO)C2)c1 (centres unmarked) [Example 258]	< 6.70	–
C[C@@]1(O)C2CC[C@H]1C[C@H](S(=O)(=O)c1cc(C(=O)Nc3ccc(F)c(F)c3)c(-c3ccncc3)cc1Cl)C2 [Example 132]	< 6.70	–
O=C(Nc1cc(F)c(F)c(F)c1)c1ccc(Cl)c(S(=O)(=O)[C@H]2CC3CCC(C2)[C@]3(O)CO[C@H]2C[C@@H](O)[C@@H](O)C2)c1 [Example 34]	> 6.98	–
O=C(Nc1ccc(F)c(F)c1)c1ccc(Cl)c(S(=O)(=O)[C@H]2CC3CC[C@@H](C2)[C@@]3(O)C(O)Cn2ccnc2)c1 (some centres unmarked) [Example 311]	< 6.70	–
Cc1ccnc([C@@H](O)[C@@]2(O)C3CC[C@H]2C[C@H](S(=O)(=O)c2cc(C(=O)Nc4ccc(F)c(F)c4)ccc2Cl)C3)c1 [Example 296b]	> 6.98	–
CC(O)C(O)CNC(=O)[C@]1(O)C2CCC1C[C@@H](S(=O)(=O)c1cc(C(=O)Nc3cc(F)c(F)c(F)c3)ccc1Cl)C2 (mixture of isomers) [Example 38]	< 6.70	–
O=C(CC1(O)CC(S(=O)(=O)c2cc(C(=O)Nc3ccc(F)c(F)c3)ccc2Cl)C1)NCCCO (centres unmarked) [Example 249]	< 6.70	–
Cc1ccc(C(O)[C@]2(O)C3CCC2C[C@@H](S(=O)(=O)c2cc(C(=O)Nc4ccc(F)c(F)c4)ccc2Cl)C3)nc1 (some centres unmarked) [Example 293]	> 6.98	–
O=C(Nc1ccc(F)c(F)c1)c1ccc(Cl)c(S(=O)(=O)[C@@H]2CC3CC[C@@H](C2)[C@@]3(O)C(O)c2ccnc(Br)c2F)c1 (some centres unmarked) [Example 298]	> 6.98	–
O=C(Nc1ccc(F)c(F)c1)c1ccc(Cl)c(S(=O)(=O)[C@H]2CC3CCC(C2)[C@]3(O)C(O)c2ccc(F)c[n+]2[O-])c1 (some centres unmarked) [Example 292]	< 6.70	–
O=C(Nc1ccc(F)c(F)c1)c1ccc(Cl)c(S(=O)(=O)C2CC(O)(CO)C2)c1 (centres unmarked) [Example 220]	< 6.70	–

Structure (SMILES)	pEC50	EC50 (HePAD38, 120 h, read-out: HepAD38 EC50 (μM))
COC(=O)N[C@@H](C)C(=O)NC[C@]1(O)C2CCC1C[C@@H](S(=O)(=O)c1cc(C(=O)Nc3cc(F)c(F)c(F)c3)ccc1Cl)C2 [Example 48]	> 6.98	–
O=C(Nc1ccc(F)c(F)c1)c1ccc(Cl)c(S(=O)(=O)[C@@H]2CC3CC[C@@H](C2)[C@@]3(O)C(O)c2ccc3ccccc3n2)c1 (some centres unmarked) [Example 301]	> 6.98	–
O=C(Nc1cc(F)c(F)c(F)c1)c1ccc(Cl)c(S(=O)(=O)[C@H]2CC3CCC(C2)[C@]3(O)CNC(=O)[C@H]2CCCO2)c1 [Example 15]	> 6.98	–
O=C(Nc1ccc(F)c(F)c1)c1ccc(Cl)c(S(=O)(=O)[C@H]2CC3CCC(C2)[C@@]3(O)C(O)CN2CCCS2(=O)=O)c1 (some centres unmarked) [Example 309]	6.70 to 7.00	–
O=C1CC[C@@H](C(=O)NC[C@]2(O)C3CCC2C[C@@H](S(=O)(=O)c2cc(C(=O)Nc4cc(F)c(F)c(F)c4)ccc2Cl)C3)N1 [Example 127]	< 6.70	–
O=C(Nc1ccc(F)c(F)c1)c1ccc(Cl)c(S(=O)(=O)CC2CC=CCC2)c1 (centres unmarked) [Example 227]	< 6.70	–
COC(=O)C1([C@]2(O)C3CCC2C[C@@H](S(=O)(=O)c2cc(C(=O)Nc4cc(F)c(F)c(F)c4)ccc2Cl)C3)COC(C)(C)O1 (some centres unmarked) [Example 202]	> 6.98	–
O=C(C[C@]1(O)C2CCC1C[C@@H](S(=O)(=O)c1cc(C(=O)Nc3ccc(F)c(F)c3)ccc1Cl)C2)NCCO [Example 184]	> 6.98	–
O=C(Nc1ccc(F)c(F)c1)c1ccc(Cl)c(S(=O)(=O)[C@H]2CC3CC[C@@H](C2)[C@@]3(O)C(O)CN2CCOC2=O)c1 (some centres unmarked) [Example 312]	< 6.70	–
C[C@H](O)[C@@H](O)[C@@]1(O)C2CC(O)C1C[C@H](S(=O)(=O)c1cc(C(=O)Nc3ccc(F)c(F)c3)ccc1Cl)C2 (some centres unmarked) [Example 337]	< 6.70	–
O=C(Nc1cc(F)c(F)c(F)c1)c1ccc(Cl)c(S(=O)(=O)C2CC3CCC(C2)N3C2CCCC2)c1 (centres unmarked) [Example 146]	< 6.70	–
NS(=O)(=O)NC[C@]1(O)C2CCC1C[C@@H](S(=O)(=O)c1cc(C(=O)Nc3cc(F)c(F)c(F)c3)ccc1Cl)C2 [Example 156]	> 6.98	–
O=C(Nc1ccc(F)c(F)c1)c1ccc(Cl)c(S(=O)(=O)CC2CC(O)(C(O)CO)C2)c1 (centres unmarked) [Example 207]	< 6.70	–
C[C@]1(O)C2CCC1C[C@@H](S(=O)(=O)c1cc(C(=O)Nc3ccc(F)c(F)c3)c(-c3nccs3)cc1Cl)C2 [Example 157]	> 6.98	–
O=C(Nc1ccc(F)c(F)c1)c1ccc(Cl)c(S(=O)(=O)[C@H]2CC3CCC(C2)[C@]3(O)C(O)CO)c1 (mixture of isomers) [Example 82]	> 6.98	–
C[C@@H](O)[C@H](O)[C@]1(O)C2CCC1C[C@@H](S(=O)(=O)c1cc(C(=O)Nc3cc(F)c(F)c(F)c3)ccc1Cl)C2 (single isomer, unassigned) [Example 109]	> 6.98	–
C[C@]1(O)C2CCC1C[C@@H](S(=O)(=O)c1cccc(C(=O)Nc3cc(F)c(F)c(F)c3)c1)C2 [Example 37]	6.70 to 7.00	–
COC(=O)N1C[C@H](O)C[C@H]1C(=O)NCC(O)[C@]1(O)C2CCC1C[C@@H](S(=O)(=O)c1cc(C(=O)Nc3cc(F)c(F)c(F)c3)ccc1Cl)C2 (some centres unmarked) [Example 107]	< 6.70	–
C[C@]1(O)C2CCC1C[C@@H](S(=O)(=O)c1cc(C(=O)Nc3ccc(F)c(CO)c3)ccc1Cl)C2 [Example 166]	> 6.98	–
C[C@H](O)COCC1(O)CC(S(=O)(=O)c2cc(C(=O)Nc3ccc(F)c(F)c3)ccc2Cl)C1 (some centres unmarked) [Example 230]	< 6.70	–
O=C(Nc1ccc(F)c(F)c1)c1ccc(Cl)c(S(=O)(=O)[C@@H]2CC3CC[C@@H](C2)[C@@]3(O)C(O)c2ccc(C(F)(F)F)cn2)c1 (some centres unmarked) [Example 300]	< 6.70	–
O=C(Nc1ccc(F)c(F)c1)c1ccc(Cl)c(S(=O)(=O)[C@H]2CC3CCC(C2)[C@]3(O)C(O)c2ccccn2)c1 (some centres unmarked) [Example 284]	> 6.98	–
O=C(O)CC1(O)CC(S(=O)(=O)c2cc(C(=O)Nc3ccc(F)c(F)c3)ccc2Cl)C1 (centres unmarked) [Example 243]	< 6.70	–
Cc1cccnc1C(O)[C@@]1(O)C2CC[C@H]1C[C@H](S(=O)(=O)c1cc(C(=O)Nc3ccc(F)c(F)c3)ccc1Cl)C2 (some centres unmarked) [Example 295]	> 6.98	–
CC(O)C(O)CNC(=O)C[C@]1(O)C2CCC1C[C@@H](S(=O)(=O)c1cc(C(=O)Nc3cc(F)c(F)c(F)c3)ccc1Cl)C2 (some centres unmarked) [Example 57]	6.70 to 7.00	–
O=C(Nc1ccc(F)c(F)c1)c1ccc(Cl)c(S(=O)(=O)C2CC(O)(CCO)C2)c1 (centres unmarked) [Example 240]	< 6.70	–
